From patent US20250122188A1, “MODULATORS OF THE INTEGRATED STRESS PATHWAY” (Calico Life Sciences LLC, priority 2016, published 2025)
Like-named read-outs stand apart in the source and are kept apart here. Blank lines part the entries; values can stand above or below the compound they belong to.

What was measured:
Assay type in all cases: cell-based
eIF2B mutant B4 R483W = test: ATF4-Luc assay, VWMD eIF2B mutant HEK293T ATF4-Fluc cells, B4 R483W; settings: Homo sapiens, HEK-293T
Description: (§1) In order to test exemplary compounds of the invention in a cellular context, a stable VWMD cell line was first constructed. The ATF4 reporter was prepared by fusing the human full-length ATF4 5′-UTR (NCBI Accession No. BC022088.2) in front of the firefly luciferase (FLuc) coding sequence lacking the initiator methionine as described in Sidrauski et al (eLife 2013). The construct was used to produce recombinant retroviruses using standard methods and the resulting viral supernatant was used to transduce HEK293T cells, which were then subsequently selected with puromycin to generate a stable cell line.
(§2) HEK293T cells carrying the ATF4 luciferase reporter were plated on polylysine coated 384-well plates (Greiner Bio-one) at 30,000 cells per well. Cells were treated the next day with 1 μg/mL tunicamycin and 200 nM of a compound of Formula (I) for 7 hours. Luminescence was measured using One Glo (Promega) as specified by the manufacturer. Cells were maintained in DMEM with L-glutamine supplemented with 10% heat-inactivated FBS (Gibco) and Antibiotic-Antimycotic solution (Gibco).
(§3) VWMD mutations were introduced into the genome of the HEK293T ATF4-Fluc stable cell lines by using Gene Art CRISPR nuclease vector with OFP Reporter kit (ThermoFisher; see Table 3 below). Guide RNAs were designed using the CRISPR Design Tool (http://crispr.mit.edu) and ligated into the CRISPR OFP Nuclease Vector. To obtain homology directed repair (HDR) incorporating VWMD point mutations in the genome, 150 bp ssDNA ultramer oligos were synthesized by Integrated DNA Technologies containing specific mutations of interest. In addition to the VWMD mutations, the ssDNA HDR templates contained a silent mutation to the PAM site of the CRISPR gRNA sequence (to avoid further Cas9 cutting) and 75 bp of homology on each side of the mutation.
(§4) HEK293T ATF4-Fluc cells were transfected with 500 ng of the CRISPR OFP Nuclease Vector and 1 μL of 10 μM ssDNA HDR template using lipofectamine 3000 (ThermoFisher) or SF Cell Line 4D-nucleofector X Kit (Lonza) according to the manufacturer's instructions. After 2-3 days of recovery, single cells were sorted for positive OFP expression on a FACS Aria II (BD Biosciences) into wells of a 96 well plate and allowed to recover for 1-2 weeks.
(§5) The resulting clones were surveyed for CRISPR editing and HDR by harvesting the genomic DNA with the PureLink Genomic DNA kit (ThermoFisher), amplifying a […] locus near the editing site, and sequencing the amplicon. […] Typical clones obtained were hemizygous for the VWMD point mutation, with one or two alleles harboring the desired mutation, and the remaining alleles knocked out (edited to produce a premature stop codon).

eIF2B mutant B5 R113H = test: ATF4-Luc assay, VWMD eIF2B mutant HEK293T ATF4-Fluc cells, B5 R113H; settings: Homo sapiens, HEK-293T
Description: as §1, §2, §3, §4, §5

eIF2B mutant B4 R357W = test: ATF4-Luc assay, VWMD eIF2B mutant HEK293T ATF4-Fluc cells, B4 R357W; settings: Homo sapiens, HEK-293T
Description: as §1, §2, §3, §4, §5

eIF2B mutant B1 V184 = test: ATF4-Luc assay, VWMD eIF2B mutant HEK293T ATF4-Fluc cells, B1 V184; settings: Homo sapiens, HEK-293T
Description: as §1, §2, §3, §4, §5

eIF2B mutant B3 H341Q = test: ATF4-Luc assay, VWMD eIF2B mutant HEK293T ATF4-Fluc cells, B3 H341Q; settings: Homo sapiens, HEK-293T
Description: as §1, §2, §3, §4, §5

eIF2B mutant B3 I346T = test: ATF4-Luc assay, VWMD eIF2B mutant HEK293T ATF4-Fluc cells, B3 I346T; settings: Homo sapiens, HEK-293T
Description: as §1, §2, §3, §4, §5

eIF2B mutant B5 R195H = test: ATF4-Luc assay, VWMD eIF2B mutant HEK293T ATF4-Fluc cells, B5 R195H; settings: Homo sapiens, HEK-293T
Description: as §1, §2, §3, §4, §5

[1] = tested on: ATF4 luciferase reporter in HEK293T cells; test: ATF4-Luc assay, HEK293T cells carrying the ATF4 luciferase reporter (in vitro model of VWMD); settings: Homo sapiens, HEK-293T, read-out: ATF4-Luc EC50
Description: as §1, §2

[2] = HEK293T ATF4 luciferase reporter cells, 1 μg/mL tunicamycin, 7 hours

- EC50 (eIF2B mutant B4 R483W): < 10 nM
- EC50 (eIF2B mutant B5 R113H): < 10 nM
- EC50 (eIF2B mutant B4 R357W): < 10 nM
- EC50 (eIF2B mutant B1 V184): < 10 nM
- EC50 (eIF2B mutant B3 H341Q): < 10 nM
- EC50 (eIF2B mutant B3 I346T): < 10 nM
- EC50 (eIF2B mutant B5 R195H): < 10 nM
Structure (SMILES): O=C(COc1ccc(Cl)cc1)NC12CC(NC(=O)COc3ccc(Cl)cc3)(C1)C2 [Compound 112, N,N′-(bicyclo[1.1.1]pentane-1,3-diyl)bis[2-(4-chlorophenoxy)acetamide]]

- EC50 (eIF2B mutant B4 R483W): < 10 nM
- EC50 (eIF2B mutant B5 R113H): 10 to 50 nM
- EC50 (eIF2B mutant B4 R357W): 10 to 50 nM
- EC50 (eIF2B mutant B1 V184): 50 to 250 nM
- EC50 (eIF2B mutant B3 H341Q): 10 to 50 nM
- EC50 (eIF2B mutant B3 I346T): < 10 nM
- EC50 (eIF2B mutant B5 R195H): 10 to 50 nM
Structure (SMILES): O=C(COc1ccc(C(F)(F)F)nc1)NC12CC(NC(=O)COc3ccc(Cl)c(F)c3)(C1)C2 [Compound 175, 2-(4-chloro-3-fluorophenoxy)-N-[3-(2-{[6-(trifluoromethyl)pyridin-3-yl]oxy}acetamido)bicyclo[1.1.1]pentan-1-yl]acetamide]

- EC50 (eIF2B mutant B4 R483W): > 2000 nM
- EC50 (eIF2B mutant B5 R113H): > 2000 nM
- EC50 (eIF2B mutant B4 R357W): > 2000 nM
- EC50 (eIF2B mutant B1 V184): > 2000 nM
- EC50 (eIF2B mutant B3 H341Q): > 2000 nM
- EC50 (eIF2B mutant B3 I346T): > 2000 nM
- EC50 (eIF2B mutant B5 R195H): > 2000 nM
Structure (SMILES): Cc1noc(COCC(=O)NC23CC(NC(=O)COc4ccc(Cl)c(F)c4)(C2)C3)n1 [Compound 217, 2-(4-chloro-3-fluorophenoxy)-N-(3-{2-[(3-methyl-1,2,4-oxadiazol-5-yl)methoxy]acetamido}bicyclo[1.1.1]pentan-1-yl)acetamide]

- EC50 (eIF2B mutant B4 R483W): < 10 nM
- EC50 (eIF2B mutant B5 R113H): < 10 nM
- EC50 (eIF2B mutant B4 R357W): < 10 nM
- EC50 (eIF2B mutant B1 V184): < 10 nM
- EC50 (eIF2B mutant B3 H341Q): < 10 nM
- EC50 (eIF2B mutant B3 I346T): < 10 nM
- EC50 (eIF2B mutant B5 R195H): < 10 nM
Structure (SMILES): O=C(COc1ccc(Cl)c(F)c1)NC12CCC(NC(=O)COc3ccc(Cl)c(F)c3)(CC1)[C@H](O)C2 [Compound 298, N,N′-[(2R)-2-hydroxybicyclo[2.2.2]octane-1,4-diyl]bis[2-(4-chloro-3-fluorophenoxy)acetamide]]
- EC50 [1, 2]: < 10 nM

Structure (SMILES): O=C(/C=C/c1ccc(OC(F)(F)F)cn1)NC12CC(NC(=O)COc3ccc(Cl)c(F)c3)(C1)C2 [Compound 376, (2E)-N-{3-[2-(4-chloro-3-fluorophenoxy)acetamido]bicyclo[1.1.1]pentan-1-yl}-3-[5-(trifluoromethoxy)pyridin-2-yl]prop-2-enamide]
- EC50 [1, 2]: 250 to 500000 nM

Structure (SMILES): O=C(COc1ccc(C(F)F)cc1)NC12CC(NC(=O)COc3ccc(C(F)F)cc3)(C1)C2 [Compound 389, N,N′-(bicyclo[1.1.1]pentane-1,3-diyl)bis{2-[4-(difluoromethyl)phenoxy]acetamide}]
- EC50 [1, 2]: 250 to 500000 nM

Structure (SMILES): O=C(COc1ccc2c(c1)OC(F)(F)O2)NC12CCC(NC(=O)COc3ccc4c(c3)OC(F)(F)O4)(C1)C2 [Compound 391, N,N′-(bicyclo[2.1.1]hexane-1,4-diyl)bis{2-[(2,2-difluoro-2H-1,3-benzodioxol-5-yl)oxy]acetamide}]
- EC50 [1, 2]: 250 to 500000 nM

Structure (SMILES): CC(O)(c1ccc(OCC(=O)NC23CC(NC(=O)COc4ccc(Cl)c(F)c4)(C2)C3)cc1)C(F)(F)F (stereo not shown) [Compound 413, 2-(4-chloro-3-fluorophenoxy)-N-(3-{2-[4-(1,1,1-trifluoro-2-hydroxypropan-2-yl)phenoxy]acetamido}bicyclo[1.1.1]pentan-1-yl)acetamide]
- EC50 [1, 2]: 250 to 500000 nM

Structure (SMILES): CC(C)(O)c1ccc(OCC(=O)NC23CC(NC(=O)COc4ccc(Cl)c(Cl)c4)(C2)C3)cc1 [Compound 422, 2-(3,4-dichlorophenoxy)-N-(3-{2-[4-(2-hydroxypropan-2-yl)phenoxy]acetamido}bicyclo[1.1.1]pentan-1-yl)acetamide]
- EC50 [1, 2]: 250 to 500000 nM

Structure (SMILES): O=C(COc1ccc(Cl)c(F)c1)NC12CC(NC(=O)Oc3ccc(Cl)cc3)(C1)C2 [Compound 434, 4-chlorophenyl {3-[2-(4-chloro-3-fluorophenoxy)acetamido]bicyclo[1.1.1]pentan-1-yl}carbamate]
- EC50 ([1]; 7 h): 250 to 500000 nM

Structure (SMILES): Cc1ccc(OC(=O)NC23CC(NC(=O)COc4ccc(Cl)c(F)c4)(C2)C3)cc1 [Compound 435, 4-methylphenyl {3-[2-(4-chloro-3-fluorophenoxy)acetamido]bicyclo[1.1.1]pentan-1-yl}carbamate]
- EC50 ([1]; 7 h): 250 to 500000 nM

Structure (SMILES): CCc1cc(C)cc(OCC(=O)NC23CCC(NC(=O)COc4ccc(Cl)c(F)c4)(CC2)C[C@@H]3O)c1 [Compound 494, 2-(4-chloro-3-fluorophenoxy)-N-{(3S)-4-[2-(3-ethyl-5-methylphenoxy)acetamido]-3-hydroxybicyclo[2.2.2]octan-1-yl}acetamide]
- EC50 [1, 2]: 250 to 500000 nM

Structure (SMILES): COc1cc(OC)nc(OCC(=O)NC23CCC(NC(=O)COc4ccc(Cl)c(F)c4)(CC2)C[C@@H]3O)n1 [Compound 498, 2-(4-chloro-3-fluorophenoxy)-N-[(3S)-4-{2-[(4,6-dimethoxypyrimidin-2-yl)oxy]acetamido}-3-hydroxybicyclo[2.2.2]octan-1-yl]acetamide]
- EC50 [1, 2]: 250 to 500000 nM

Structure (SMILES): O=C(COc1ccc(Cl)c(F)c1)NC12CCC(NC(=O)COc3ncccn3)(CC1)[C@@H](O)C2 [Compound 500, 2-(4-chloro-3-fluorophenoxy)-N-[(3S)-3-hydroxy-4-{2-[(pyrimidin-2-yl)oxy]acetamido}bicyclo[2.2.2]octan-1-yl]acetamide]
- EC50 [1, 2]: > 2000 nM

Structure (SMILES): CC(C)(C)c1ccc(OCC(=O)NC23CCC(NC(=O)COc4ccc(Cl)c(F)c4)(CC2)C[C@@H]3O)cc1 [Compound 506, 2-(4-tert-butylphenoxy)-N-{(2S)-4-[2-(4-chloro-3-fluorophenoxy)acetamido]-2-hydroxybicyclo[2.2.2]octan-1-yl}acetamide]
- EC50 [1, 2]: 250 to 500000 nM
